PMC5515432, “A human tissue-based functional assay platform to evaluate the immune function impact of small molecule inhibitors that target the immune system” (PLoS ONE, 2017)
“And” between values parts separate entries of the source, which are not always exact repeats. Identical values can stand only once. “Also recorded” adds a separate entry of the source. Like-named read-outs stand apart in the source and are kept apart here. Blank lines part the entries; values can stand above or below the compound they belong to.

Experiments:
TLR3 [1] = experiment: TLR3 response: Poly I:C induced IP-10 production in PBMCs
Procedure: (§3) To evaluate TLR3 responses, frozen PBMCs were thawed in culture medium. A total of 2x10^5 PBMCs were seeded per well in a 96-well tissue culture plate for the assay. One hour following incubation with compounds at 37°C, 5% CO2, the PBMCs were treated with a PBMC donor-specific EC80 concentration of the high molecular weight Poly I:C (TLR3 ligand, Invivogen, San Diego, CA) or appropriate controls, and were allowed to incubate at 37°C, 5% CO2 for 24 hours. Twenty four hours following incubation, 120μl of the cell culture supernatant was removed from the cell culture plates and frozen at -80°C until further analysis. To evaluate TLR7 and TLR9 responses, PBMCs were thawed in culture medium, reconstituted to a concentration of 3x10^6 cells/ml, dispensed into ultra-low attachment flasks and incubated at 37°C, 5% CO2 for 24h with continuous rocking. The PBMCs were harvested from the flask, seeded at a density of 2x10^5 PBMCs/well in compound-dispensed assay plates and allowed to incubate at 37°C, 5% CO2 for 24 hours. One hour following incubation with compounds at 37°C, 5% CO2, the PBMCs were treated with a PBMC donor-specific EC80 concentration of high molecular weight CL264 (TL7 ligand, Invivogen, San Diego, CA) or ODN 2395 (TLR9 ligand, Invivogen, San Diego, CA), or appropriate controls, and were allowed to incubate at 37°C, 5% CO2 for 24 hours. Twenty four hours following incubation, 120μl of the cell culture supernatant was removed from the cell culture plates and frozen at -80°C until further analysis. The cell culture supernatants were analyzed for IP-10 or IL-6 levels using MSD kits (Meso Scale Discovery, Rockville, MD) according to manufacturer’s protocols.
(§4) The stimulant was the chemical agent that was used to elicit the response in the assay (i.e., TLR ligands in the TLR assay). We used EC80 stimulation conditions for evaluating the impact of compounds in assays with titrable stimulants. To account for donor-to-donor variability in PBMCs, we used donors that whose EC80 values were within a 3-fold range determined by dose-response experiments with the stimulants.

TLR9 [2] = experiment: TLR9 response: ODN 2395 induced IL-6 production in PBMCs
Procedure: as §3, §4

TLR7 [3] = experiment: TLR7 response: TLR7 agonist induced IL-6 production in PBMCs; conditions: for TLR7 Max inhibition: sheet 'TLR7', % maximal inhibition = 'top' of curve fit
Procedure: as §3, §4

[4] = tested on: ROS production by neutrophils in human whole blood; experiment: Phagocyte oxidative burst (Phagoburst), neutrophil ROS production in whole blood; assay type: cell-based; conditions: for IC50: sheet 'IC50 values', whole blood, 10 min, corrected for plasma protein binding, unit inferred, Assay control = DPI, read-out: PB_Neut IC50
Procedure: (§1) Phagocytic oxidative burst was assessed in whole blood samples using the Phagoburst kit (Orpegen Biopharma, #10–0200). The assay was modified to accommodate a 96 well format. Briefly, 50 μL human whole blood was mixed well with compounds (0.1% final DMSO concentration) and incubated for 30 minutes at 37°C, 5% CO2. Then, samples were incubated on ice for 5 minutes, followed by the addition of 10uL of reagent B (opsonized bacteria). Samples were then mixed well and incubated for 10 minutes in a 37°C water bath. Next, 10μL of reagent E (substrate solution) was added to the samples, mixed well and incubated for an additional 10 minutes in the 37°C water bath. Then, 150uL of reagent F (lysis solution) was added to all wells, mixed well and incubated for 20 minutes at room temperature. Samples were washed twice with reagent A and incubated with 90μL of reagent G (DNA staining solution) for 10 minutes, on ice and protected from light. The samples were analyzed in a BD Fortessa flow cytometer. Cells were gated based on Forward and Side scatter properties and high content DNA. A total of 10,000 cell events (high content DNA) were collected, analyzed using FACSDiva or Flowjo and the oxidative burst was measured by the geometric mean fluorescence intensity (GMFI) of the ROS detection dye in the assay (Figure C in S2 Fig).
(§2) Compounds were spiked at 1 μM in plasma. […] Following centrifugation, samples were analyzed using LC-MS/MS. […] A similar methodology was followed for media binding.

TLR9 [5] = tested on: TLR9
Procedure: as §3, §4

TLR7 [6] = tested on: TLR7
Procedure: as §3, §4

[7] = tested on: NK cell mediated killing of K562 cells
Procedure: (§5) A commercially available kit was used to asses NK cell killing (NK Test, Glycotope Biotechnology). Human PBMCs (effector cells) resuspended in culture medium were plated in a round bottom, sterile poly propylene 96 well plate (Corning #3359) and incubated with compounds (final DMSO concentration 0.1%) for 1 hour. Membrane labeled GFP positive K562 cells (target cells) were then added to the effector cells at a 1:50 target–effector ratio. Cells were centrifuged for 3 minutes at 120xg to ensure cell-cell contact and incubated at 37°C, 5% CO2 for 2 hours. Cells were then resuspended in propidium iodide staining solution and incubated at room temperature for 5 minutes. A total of 10,000 target cell events were acquired on a BD Fortessa flow cytometer, and the data was analyzed by FACSDiva or Flowjo.
(§6) We used EC80 stimulation conditions for evaluating the impact of compounds in assays with titrable stimulants. To account for donor-to-donor variability in PBMCs, we used donors that whose EC80 values were within a 3-fold range determined by dose-response experiments with the stimulants. For the NK cell killing assay, we used the conditions and donors that gave the best assay window (i.e., 1:50 target:effector ratio). For the T cell stimulation assay, we performed a dose-titration of αCD3 and αCD28 to determine the stimulation conditions used in this assay. […] Every assay plate contained samples that would elicit a minimal response (no stimulant), maximal response (stimulant with no compounds), compound dose-response (stimulant with compounds) and positive control (stimulant with compound that is known to inhibit the assay). We evaluated the impact of small molecule inhibitors in 8–10 different doses for every PBMC sample in every assay. The values obtained from multiple PBMC donors were compiled together to calculate the inhibitory concentrations of the compounds in a given assay.
(§7) Each assay contained samples that would elicit a minimal and a maximal response, which defined the assay window.

TLR3 [8] = tested on: TLR3
Procedure: as §3, §4

[9] = tested on: NK cell mediated killing of K562 cells; experiment: NK cell killing function (NK Test, PBMC effectors, K562 target cells)
Procedure: as §5, §6, §7

[10] = tested on: CD8+ T cell proliferation in human PBMCs
Procedure: (§8) Peripheral blood mononuclear cells in culture media were pre-treated with compounds (0.1% final DMSO concentration) for 45 minutes at 37°C, 5% CO2 and then transferred into anti-CD3 (1 μg/mL, OKT3, eBioscience, San Diego, CA) coated plate containing soluble anti-CD28 (1 μg/mL, Fitzgerald, Acton, MA). Twenty four hours after stimulation, an aliquot of cell culture supernatant was collected and evaluated for IL-2 production (MesoScale Discovery, Rockville, MD) according to manufacturer’s instructions. The remaining culture was allowed to continue incubation for an additional 48 hours. To evaluate proliferation, Click-iT EdU Alexa Flour 647 Assay Kit (Invitrogen, Carlsbad, CA) was used according to manufacturer’s instructions, and proliferation was evaluated at 72 hours following stimulation. The cells were stained with flourochrome conjugated antibodies against CD3, CD4 and CD8 and analyzed in a BD Fortessa flow cytometer by acquiring 8–10,000 events. The data was analyzed by FACSDiva or FlowJo and reported as the percentage of EdU^+CD3^+CD4^+ and EdU^+CD3^+CD8^+ lymphocytes (Figure A in S2 Fig).
(§9) The stimulant was the chemical agent that was used to elicit the response in the assay (i.e., TLR ligands in the TLR assay). We used EC80 stimulation conditions for evaluating the impact of compounds in assays with titrable stimulants. To account for donor-to-donor variability in PBMCs, we used donors that whose EC80 values were within a 3-fold range determined by dose-response experiments with the stimulants. For the NK cell killing assay, we used the conditions and donors that gave the best assay window (i.e., 1:50 target:effector ratio). For the T cell stimulation assay, we performed a dose-titration of αCD3 and αCD28 to determine the stimulation conditions used in this assay. For the phagocyte oxidative burst assay, since we could not screen human whole blood for selecting best responders, we followed the manufacturer’s protocol on 8–10 different human whole blood samples. Every assay plate contained samples that would elicit a minimal response (no stimulant), maximal response (stimulant with no compounds), compound dose-response (stimulant with compounds) and positive control (stimulant with compound that is known to inhibit the assay). We evaluated the impact of small molecule inhibitors in 8–10 different doses for every PBMC sample in every assay. The values obtained from multiple PBMC donors were compiled together to calculate the inhibitory concentrations of the compounds in a given assay.
as §7

[11] = tested on: IL-2 production by T cells in human PBMCs
Procedure: as §8, §9, §7

[12] = tested on: CD4+ T cell proliferation in human PBMCs
Procedure: as §8, §9, §7

[13] = tested on: CD8+ T cell proliferation in human PBMCs; experiment: CD8+ T cell proliferation in anti-CD3 + anti-CD28 stimulated PBMCs (EdU flow cytometry, 72 h); conditions: for impact on CD8+ T cell proliferation: PBMC, anti-CD3 + anti-CD28, 72 h
Procedure: as §8, §9, §7

[14] = tested on: IL-2 production by T cells in human PBMCs; experiment: T cell activation: IL-2 production in anti-CD3 + anti-CD28 stimulated PBMCs (MSD, 24 h); conditions: for impact on IL-2 production: PBMC, anti-CD3 + anti-CD28, 24 h; for Tcell_IL2 Max inhibition: sheet 'Tcell_IL2', % maximal inhibition = 'top' of curve fit
Procedure: as §8, §9, §7

[15] = tested on: CD4+ T cell proliferation in human PBMCs; experiment: CD4+ T cell proliferation in anti-CD3 + anti-CD28 stimulated PBMCs (EdU flow cytometry, 72 h); conditions: for impact on CD4+ T cell proliferation: PBMC, anti-CD3 + anti-CD28, 72 h
Procedure: as §8, §9, §7

[16] = tested on: gene expression of stimulated human PBMCs; experiment: Nanostring mRNA profiling in the T cell stimulation assay (anti-CD3 + anti-CD28 PBMCs); assay type: cell-based; conditions: for impact on gene expression profile of stimulated PBMCs: 24 h after anti-CD3 and anti-CD28 stimulation, n = 3 donors
Procedure: Cell pellets from experiments were lysed in RLT buffer and prepared according to standard protocol recommended by NanoString Technologies. Briefly, lysates were co-incubated with capture and reporter probes (NanoString Technologies Immunology v2 Codeset) in a thermal cycler set at 65°C for 24 hours. Samples were processed and analyzed with a Generation 2 nCounter. Counts from samples were normalized using housekeeping genes scored on the Nanostring platform. Samples with counts less than 20 were excluded from further analysis. The Matlab function ttest2 was used to determine p-values for log2 fold changes, and the function agglomerative was used to perform clustering.

[17] = tested on: ROS production by monocytes in human whole blood; experiment: Phagocyte oxidative burst (Phagoburst), monocyte ROS production in whole blood; assay type: cell-based
Procedure: as §1, §2

[18] = human whole blood, opsonized bacteria

SMILES: Cc1ccc(S(=O)(=O)/C=C/C#N)cc1 [BAY-11, BAY 11–7082]
effect on TLR3 response, Poly (I:C) induced IP-10 (TLR3 [1]): fully inhibited the response
effect on TLR9 response, ODN 2395 induced IL-6 (TLR9 [2]): fully inhibited this response
effect on TLR7 response, IL-6 production (TLR7 [3]): fully inhibited this response

SMILES: CC(C)(C)c1nc2c3cc[nH]c(=O)c3c3cc(F)ccc3c2[nH]1 [JAK inhibitor 1]
IC50 ([4]; opsonized bacteria): 354 nM
IC50 (TLR9 [5]): 26 nM
IC50 (TLR7 [6]): 547 nM
IC50 [7]: 65900 nM
IC50 (TLR3 [8]): 61.1 nM

SMILES: C/C1=C/C(=O)O[C@@H]2C[C@@H](CC[C@H](C)/C=C\C=C\CC1)O[C@@](O)([C@@H]1CSC(=O)N1)C2 [Latrunculin A, latrunculin A]
effect on NK cell killing activity [9]: completely inhibited

IC50 (TLR9 [5]): 25.4 nM and 25.9 nM
SMILES: Cc1oncc1C(=O)Nc1ccc(C(F)(F)F)cc1 [Leflunomide, leflunomide]
IC50 [7]: 48100 nM

SMILES: CN(Cc1cnc2nc(N)nc(N)c2n1)c1ccc(C(=O)N[C@@H](CCC(=O)O)C(=O)O)cc1 [Methotrexate]
IC50 [10]: 10.5 nM
IC50 [11]: 4960 nM
IC50 [12]: 5.88 nM
maximal inhibition of CD8+ T cell proliferation [13]: around 30%
impact on IL-2 production [14]: marginal but variable impact
Tcell_IL2 Max inhibition [14]: 27.8
maximal inhibition of CD4+ T cell proliferation [15]: around 30%
impact on gene expression profile of stimulated PBMCs ([16]; 1μM): minimal impact on restoring the gene expression profile

IC50 (TLR9 [5]): 2170 nM and 3060 nM
SMILES: COc1c(C)c2c(c(O)c1C/C=C(\C)CCC(=O)OCCN1CCOCC1)C(=O)OC2 [Mycophenolate Mofetil, mycophenolate mofetil]
impact on CD8+ T cell proliferation [13]: inhibited
impact on IL-2 production [14]: inhibited
Tcell_IL2 Max inhibition [14]: 49.64
impact on CD4+ T cell proliferation [15]: inhibited
IL-2 mRNA expression ([16]; 1μM, 24 h): partially reduced
impact on gene expression profile of stimulated PBMCs ([16]; 1μM): minimal impact on restoring the gene expression profile

IC50 (TLR9 [5]): 33.2 nM and 35.7 nM
IC50 (TLR7 [6]): 31.7 nM and 34.1 nM
IC50 (TLR3 [8]): 921 nM and 990 nM
SMILES: C[C@]12C=CC(=O)C=C1CC[C@@H]1[C@@H]2[C@@H](O)C[C@@]2(C)[C@H]1CC[C@]2(O)C(=O)CO [Prednisolone, prednisolone]
effect on TLR9 response, ODN 2395 induced IL-6 (TLR9 [2]): dose-dependent inhibition; also recorded: potent in inhibiting TLR9 responses
IC50 [11]: 75.5 nM
IC50 [7]: 21500 nM
TLR7 Max inhibition (TLR7 [3]): 93.77
impact on CD8+ T cell proliferation [13]: did not have an impact
impact on IL-2 production [14]: inhibited only IL-2 production
Tcell_IL2 Max inhibition [14]: 71.87
impact on CD4+ T cell proliferation [15]: did not have an impact
IL-2 mRNA expression ([16]; 1μM, 24 h): partially reduced
IL-4 mRNA expression ([16]; 1μM, 24 h): reduced
IL-13 mRNA expression ([16]; 1μM, 24 h): reduced
impact on gene expression profile of stimulated PBMCs ([16]; 1μM): modified the gene expression profile of stimulated samples similar to that of unstimulated cells
IL-2 mRNA expression, time and dose course ([16]; three concentrations, 3h, 6h and 24h following stimulation): impacted in a time- and dose-dependent manner

IC50 ([4]; Homo sapiens, Neutrophil, opsonized bacteria): 601 nM
IC50 ([17]; Homo sapiens, Monocyte, 10 min, sheet 'IC50 values', whole blood, opsonized bacteria, 10 min, corrected for plasma protein binding, unit inferred, Assay control = DPI, read-out: PB_Mono IC50): 128 nM
SMILES: CO[C@H]1C[C@@H]2CC[C@@H](C)[C@@](O)(O2)C(=O)C(=O)N2CCCC[C@H]2C(=O)O[C@H]([C@H](C)C[C@@H]2CC[C@@H](O)[C@H](OC)C2)CC(=O)[C@H](C)/C=C(\C)[C@@H](O)[C@@H](OC)C(=O)[C@H](C)C[C@H](C)/C=C/C=C/C=C/1C [Rapamycin, rapamycin]
reduction / maximal inhibition of neutrophil ROS production [4, 18]: 20–40%
PB_Neut Max inhibition ([4]; sheet 'PB_Neut', % maximal inhibition = 'top' of curve fit): 36.53
reduction / maximal inhibition of monocyte ROS production [17, 18]: 20–40%
PB_Mono Max inhibition ([17]; sheet 'PB_Mono', % maximal inhibition = 'top' of curve fit): 13.41
TLR7 Max inhibition (TLR7 [3]): 72.11
impact on CD8+ T cell proliferation [13]: did not have an impact
impact on IL-2 production [14]: did not have an impact
impact on CD4+ T cell proliferation [15]: did not have an impact

SMILES: c1ccc([I+]c2ccccc2)cc1 [diphenyliodonium chloride]
effect on neutrophil ROS production [4, 18]: completely inhibit
effect on monocyte ROS production [17, 18]: completely inhibit
